Data: patent EP1849776A1, “Azepane- or Azocane-substituted pyrazoline compounds, their preparation and use as medicaments” (LABORATORIOS DEL DR. ESTEVE, S.A., priority 2006, dated 2007)
pIC50: −log10 of the molar value.

What was measured:
Male NMRI mice = test: Mouse tetrad model, antagonistic activity against Win 55212-2; format: in vivo; conditions: against Win 55212-2 (1.25 mg/kg intravenous), substance injected 5 minutes before the agonist, tetrad component not specified
Source text: Substances with affinity for cannabinoid receptors are known to produce a wide range of pharmacological effects. It is also known that intravenous administration of a substance with affinity for cannabinoid receptors in mice produces analgesia , hypothermia, sedation and catalepsy. Individually, none of these effects can be considered as proof that a tested substance has affinity for cannabinoid-receptors, since all of these effects are common for various classes of centrally active agents. However, substances, which show all of these effects, i.e. substances that are active in this so-called tetrad model are considered to have affinity for the cannabinoid receptors. It has further been shown that cannabinoid receptor antagonists are higly effective in blocking the effects of a cannabinoid agonist in the mouse tetrad model.
The tetrad model is described, for example, in the publication of A. C. Howlett et al, International Union of Pharmacology XXVII. […]
Before testing in the behavioral procedures given below, mice are acclimatized to the experimental setting. Pre-Treatment control values are determined for analgesia hot plate latency (in seconds), rectal temperature, sedation and catalepsy.
In order to determine the agonistic activty of the substance to be tested, the mice are injected intravenously with the substance to be tested or the vehicle alone. 15 minutes after injection, latency in hot plate analgesia is measured. Rectal temperature, sedation and catalepsy are measured 20 minutes after injection.
In order to determine the antagonistic activity the identical procedure is used as for the determination of the agonistic effects, but with the difference that the substance to be evaluated for its antagonistic activity is injectected 5 minutes before the intravenous injection of 1.25 mg/kg Win-55,212 a known cannabinoid-receptor agonist.
The hot plate analgesia is determined according to the method described in Woolfe D. et al. "The evaluation of analgesic action of pethidine hydrochloride (Demerol)", J. Pharmacol. Exp. Ther. 80, 300-307,1944. […]

CB1-Receptor = target: T1, CB1-Receptor (Homo sapiens, UniProt P21554); test: In-vitro determination of affinity to CB1 receptor (radioligand binding); conditions: transfected human CB1 receptors of Receptor Biology, Inc.; radioligand [^3H]-CP55940; read-out: CB1-Receptor Radiologand:[^3H]-CP55940 IC50
T1 construct: purchased Receptor Biology, Inc
T1 sequence (P21554 whole entry): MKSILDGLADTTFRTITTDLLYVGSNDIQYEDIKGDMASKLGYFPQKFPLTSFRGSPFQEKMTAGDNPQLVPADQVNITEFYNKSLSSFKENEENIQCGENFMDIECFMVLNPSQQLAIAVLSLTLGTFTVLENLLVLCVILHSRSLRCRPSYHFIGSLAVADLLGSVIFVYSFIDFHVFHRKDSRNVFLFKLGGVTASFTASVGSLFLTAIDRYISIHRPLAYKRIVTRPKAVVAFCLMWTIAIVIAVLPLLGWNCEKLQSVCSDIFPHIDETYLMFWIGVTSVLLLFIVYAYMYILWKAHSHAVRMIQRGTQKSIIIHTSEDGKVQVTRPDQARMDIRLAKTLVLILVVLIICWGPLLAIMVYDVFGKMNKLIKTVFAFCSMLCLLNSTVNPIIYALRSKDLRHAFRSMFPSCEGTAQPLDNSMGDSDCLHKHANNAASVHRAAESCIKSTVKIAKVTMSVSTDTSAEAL
Protocol: The in-vitro determination of the affinity of the inventive quaternary ammonium salts of substituted pyrazoline compounds to CB1/CB2-Rezeptors is carried out as described in the publication of Ruth A. Ross, Heather C. Brockie et al., "Agonist-inverse agonist characterization at CB1 and CB2 cannabinoid receptors of L-759633, L759656 and AM630", British Journal of Pharmacology, 126, 665-672, (1999), whereby the transfected human CB1 and CB2 receptors of Receptor Biology, Inc. are used. The radioligand used for both receptors is [^3H]-CP55940. The respective parts of the description are hereby incorporated by reference and forms part of the present disclosure.

pIC50 (CB1-Receptor)	Compound	Antagonistic Effect in (%) (Male NMRI mice)
8.10	O=C(NN1CCCCCC1)C1=NN(c2ccc(Cl)cc2Cl)[C@@H](c2ccc(Cl)cc2)C1 [Example 2, (R)-N-(azepan-1-yl)-5-(4-chlorophenyl)-1-(2,4-dichlorophenyl)-4,5-dihydro-1H-pyrazole-3-carboxamide]	137.2
7.60	O=C(NN1CCCCCC1)C1=NN(c2ccc(Cl)cc2Cl)C(c2ccc(Cl)cc2)C1 (centres unmarked) [Example 1, N-(azepan-1-yl)-5-(4-chlorophenyl)-1-(2,4-dichlorophenyl)-4,5-dihydro-1H-pyrazole-3-carboxamide]	116±2
–	O=C(NN1CCCCCC1)C1=NN(c2ccc(Cl)cc2Cl)C(c2ccc(Br)cc2)C1 (centres unmarked) [Example 4, N-(azepan-1-yl)-5-(4-bromophenyl)-1-(2,4-dichlorophenyl)-4,5-dihydro-1H-pyrazole-3-carboxamide]	100±6
